# Key:
# mTORC1 = molecular target: T1, mTORC1 (Homo sapiens, UniProt P42345+P62942); experiment: Inhibition assay for mTORC1: phosphorylation of pS6K at Thr389, AlphaLISA in PC3 cells; assay type: cell-based; details: read-out: pIC50 mTORC1 (converted)
# T1 construct: endogenous in cells; host or cells: PC3 cells (human prostate adenocarcinoma)
# mTORC2 = molecular target: T2, mTORC2 (Homo sapiens, UniProt P42345+P62942); experiment: Inhibition assay for mTORC2: phosphorylation of pAkt at Ser473, AlphaLISA in PC3 cells; assay type: cell-based; details: read-out: pIC50 mTORC2 (converted)
# T2 construct: endogenous in cells; host or cells: PC3 cells (human prostate adenocarcinoma)
# T2 sequence (P62942 2-108 limits assumed, other chains not shown): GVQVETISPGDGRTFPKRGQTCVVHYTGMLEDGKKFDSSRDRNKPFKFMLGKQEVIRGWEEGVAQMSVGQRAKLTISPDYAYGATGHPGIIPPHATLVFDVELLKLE
IC50 (mTORC1),IC50 (mTORC2),Structure (SMILES)
< 0.316 nM,< 1000 nM,COC1CC2CCC(C)C(O)(O2)C(=O)C(=O)N2CCCCC2C(=O)OC(C(C)CC2CCC(OCCCN3CCOC(C)C3)C(OC)C2)CC(=O)C(C)C=C(C)C(O)C(OC)C(=O)C(C)CC(C)C=CC=CC=C1C (stereo not drawn) [Compound 310]
< 0.316 nM,< 1000 nM,COC1C[C@@H]2CC[C@@H](C)[C@@](O)(O2)C(=O)C(=O)N2CCCCC2C(=O)O[C@H]([C@H](C)C[C@@H]2CC[C@@H](OC(=O)NCCn3cnnn3)[C@H](OC)C2)CC(=O)[C@H](C)/C=C(\C)[C@@H](O)[C@@H](OC)C(=O)[C@H](C)C[C@H](C)/C=C/C=C/C=C/1C (stereo partly drawn) [Compound 312]
< 0.316 nM,< 1000 nM,COC1C[C@@H]2CC[C@@H](C)[C@@](O)(O2)C(=O)C(=O)N2CCCCC2C(=O)O[C@H]([C@H](C)C[C@@H]2CC[C@@H](OC(=O)N(C)CCO)[C@H](OC)C2)CC(=O)[C@H](C)/C=C(\C)[C@@H](O)[C@@H](OC)C(=O)[C@H](C)C[C@H](C)/C=C/C=C/C=C/1C (stereo partly drawn) [Compound 313]
< 0.316 nM,< 1000 nM,"COCCO[C@@H]1CC[C@@H](C[C@@H](C)[C@@H]2CC(=O)[C@H](C)/C=C(\C)[C@@H](O)[C@@H](OC)C(=O)[C@H](C)C[C@H](C)/C=C/C=C/C=C(\C)C(OC)C[C@@H]3CC[C@@H](C)[C@@](O)(O3)C(=O)C(=O)N3CCCCC3C(=O)O2)C[C@H]1OC (stereo partly drawn) [Compound 315, (1R,9S,12S,15R,16E,18R,19R,21R,23S,24E,26E,28E,30S,32S,35R)-1,18-dihydroxy-19,30-dimethoxy-12-[(1R)-2-[(1S,3R,4R)-3-methoxy-4-(2-methoxyethoxy)cyclohexyl]-1-methyl-ethyl]-15,17,21,23,29,35-hexamethyl-11,36-dioxa-4-azatricyclo[30.3.1.0^4,9]hexatriaconta-16,24,26,28-tetraene-2,3,10,14,20-pentone]"
< 0.316 nM,< 1000 nM,COC1C[C@@H]2CC[C@@H](C)[C@@](O)(O2)C(=O)C(=O)N2CCCCC2C(=O)O[C@H]([C@H](C)C[C@@H]2CC[C@@H](OCCOCCOCCO)[C@H](OC)C2)CC(=O)[C@H](C)/C=C(\C)[C@@H](O)[C@@H](OC)C(=O)[C@H](C)C[C@H](C)/C=C/C=C/C=C/1C (stereo partly drawn) [Compound 317]
< 0.316 nM,< 1000 nM,COC1C[C@@H]2CC[C@@H](C)[C@@](O)(O2)C(=O)C(=O)N2CCCCC2C(=O)O[C@H]([C@H](C)C[C@@H]2CC[C@@H](OC(=O)N(C)CCN3CCCCC3)[C@H](OC)C2)CC(=O)[C@H](C)/C=C(\C)[C@@H](O)[C@@H](OC)C(=O)[C@H](C)C[C@H](C)/C=C/C=C/C=C/1C (stereo partly drawn) [Compound 318]
< 0.316 nM,< 1000 nM,COC1C[C@@H]2CC[C@@H](C)[C@@](O)(O2)C(=O)C(=O)N2CCCCC2C(=O)O[C@H]([C@H](C)C[C@@H]2CC[C@@H](OCCCOCCO)[C@H](OC)C2)CC(=O)[C@H](C)/C=C(\C)[C@@H](O)[C@@H](OC)C(=O)[C@H](C)C[C@H](C)/C=C/C=C/C=C/1C (stereo partly drawn) [Compound 319]
< 0.316 nM,< 1000 nM,COC1C[C@@H]2CC[C@@H](C)[C@@](O)(O2)C(=O)C(=O)N2CCCCC2C(=O)O[C@H]([C@H](C)C[C@@H]2CC[C@@H](OCCN3CCN(C)CC3)[C@H](OC)C2)CC(=O)[C@H](C)/C=C(\C)[C@@H](O)[C@@H](OC)C(=O)[C@H](C)C[C@H](C)/C=C/C=C/C=C/1C (stereo partly drawn) [Compound 320]
< 0.316 nM,< 1000 nM,COC1C[C@@H]2CC[C@@H](C)[C@@](O)(O2)C(=O)C(=O)N2CCCCC2C(=O)O[C@H]([C@H](C)C[C@@H]2CC[C@@H](OC(=O)N(C)CCCN(C)C)[C@H](OC)C2)CC(=O)[C@H](C)/C=C(\C)[C@@H](O)[C@@H](OC)C(=O)[C@H](C)C[C@H](C)/C=C/C=C/C=C/1C (stereo partly drawn) [Compound 321]
< 0.316 nM,< 1000 nM,COC1C[C@@H]2CC[C@@H](C)[C@@](O)(O2)C(=O)C(=O)N2CCCCC2C(=O)O[C@H]([C@H](C)C[C@@H]2CC[C@@H](OCCCN3CCOCC3)[C@H](OC)C2)CC(=O)[C@H](C)/C=C(\C)[C@@H](O)[C@@H](OC)C(=O)[C@H](C)C[C@H](C)/C=C/C=C/C=C/1C (stereo partly drawn) [Compound 322]
< 0.316 nM,< 1000 nM,COC1C[C@@H]2CC[C@@H](C)[C@@](O)(O2)C(=O)C(=O)N2CCCCC2C(=O)O[C@H]([C@H](C)C[C@@H]2CC[C@@H](OC(=O)NCCc3ccccc3)[C@H](OC)C2)CC(=O)[C@H](C)/C=C(\C)[C@@H](O)[C@@H](OC)C(=O)[C@H](C)C[C@H](C)/C=C/C=C/C=C/1C (stereo partly drawn) [Compound 324]
< 0.316 nM,< 1000 nM,COC1C[C@@H]2CC[C@@H](C)[C@@](O)(O2)C(=O)C(=O)N2CCCCC2C(=O)O[C@H]([C@H](C)C[C@@H]2CC[C@@H](OCCN3CCOCC3)[C@H](OC)C2)CC(=O)[C@H](C)/C=C(\C)[C@@H](O)[C@@H](OC)C(=O)[C@H](C)C[C@H](C)/C=C/C=C/C=C/1C (stereo partly drawn) [Compound 325]
< 0.316 nM,< 1000 nM,COC1C[C@@H]2CC[C@@H](C)[C@@](O)(O2)C(=O)C(=O)N2CCCCC2C(=O)O[C@H]([C@H](C)C[C@@H]2CC[C@@H](OCCCN3CCN(C)CC3)[C@H](OC)C2)CC(=O)[C@H](C)/C=C(\C)[C@@H](O)[C@@H](OC)C(=O)[C@H](C)C[C@H](C)/C=C/C=C/C=C/1C (stereo partly drawn) [Compound 332]
< 0.316 nM,< 1000 nM,COC1C[C@@H]2CC[C@@H](C)[C@@](O)(O2)C(=O)C(=O)N2CCCCC2C(=O)O[C@H]([C@H](C)C[C@@H]2CC[C@@H](OC(=O)NCc3ccccn3)[C@H](OC)C2)CC(=O)[C@H](C)/C=C(\C)[C@@H](O)[C@@H](OC)C(=O)[C@H](C)C[C@H](C)/C=C/C=C/C=C/1C (stereo partly drawn) [Compound 333]
< 0.316 nM,< 1000 nM,COC1C[C@@H]2CC[C@@H](C)[C@@](O)(O2)C(=O)C(=O)N2CCCCC2C(=O)O[C@H]([C@H](C)C[C@@H]2CC[C@@H](OC(=O)NCCc3ccncc3)[C@H](OC)C2)CC(=O)[C@H](C)/C=C(\C)[C@@H](O)[C@@H](OC)C(=O)[C@H](C)C[C@H](C)/C=C/C=C/C=C/1C (stereo partly drawn) [Compound 334]
< 0.316 nM,< 1000 nM,COC1C[C@@H]2CC[C@@H](C)[C@@](O)(O2)C(=O)C(=O)N2CCCCC2C(=O)O[C@H]([C@H](C)C[C@@H]2CC[C@@H](OC(=O)NCCN3CCOCC3)[C@H](OC)C2)CC(=O)[C@H](C)/C=C(\C)[C@@H](O)[C@@H](OC)C(=O)[C@H](C)C[C@H](C)/C=C/C=C/C=C/1C (stereo partly drawn) [Compound 336]
< 0.316 nM,< 1000 nM,COC1C[C@@H]2CC[C@@H](C)[C@@](O)(O2)C(=O)C(=O)N2CCCCC2C(=O)O[C@H]([C@H](C)C[C@@H]2CC[C@@H](OC(=O)NCCC3CC3)[C@H](OC)C2)CC(=O)[C@H](C)/C=C(\C)[C@@H](O)[C@@H](OC)C(=O)[C@H](C)C[C@H](C)/C=C/C=C/C=C/1C (stereo partly drawn) [Compound 337]
< 0.316 nM,< 1000 nM,COC1C[C@@H]2CC[C@@H](C)[C@@](O)(O2)C(=O)C(=O)N2CCCCC2C(=O)O[C@H]([C@H](C)C[C@@H]2CC[C@@H](OC(=O)N(C)CCCO)[C@H](OC)C2)CC(=O)[C@H](C)/C=C(\C)[C@@H](O)[C@@H](OC)C(=O)[C@H](C)C[C@H](C)/C=C/C=C/C=C/1C (stereo partly drawn) [Compound 338]
< 0.316 nM,< 1000 nM,COC1CC2CCC(C)C(O)(O2)C(=O)C(=O)N2CCCCC2C(=O)OC(C(C)CC2CCC(OCCCN3CCCC(O)C3)C(OC)C2)CC(=O)C(C)C=C(C)C(O)C(OC)C(=O)C(C)CC(C)C=CC=CC=C1C (stereo not drawn) [Compound 340]
< 0.316 nM,< 1000 nM,COC1C[C@@H]2CC[C@@H](C)[C@@](O)(O2)C(=O)C(=O)N2CCCCC2C(=O)O[C@H]([C@H](C)C[C@@H]2CC[C@@H](OCCCN3CCCCC3)[C@H](OC)C2)CC(=O)[C@H](C)/C=C(\C)[C@@H](O)[C@@H](OC)C(=O)[C@H](C)C[C@H](C)/C=C/C=C/C=C/1C (stereo partly drawn) [Compound 341]
< 0.316 nM,< 1000 nM,COC1C[C@@H]2CC[C@@H](C)[C@@](O)(O2)C(=O)C(=O)N2CCCCC2C(=O)O[C@H]([C@H](C)C[C@@H]2CC[C@@H](OP(C)(C)=O)[C@H](OC)C2)CC(=O)[C@H](C)/C=C(\C)[C@@H](O)[C@@H](OC)C(=O)[C@H](C)C[C@H](C)/C=C/C=C/C=C/1C (stereo partly drawn) [Compound 342]
< 0.316 nM,< 1000 nM,COC1C[C@@H]2CC[C@@H](C)[C@@](O)(O2)C(=O)C(=O)N2CCCCC2C(=O)O[C@H]([C@H](C)C[C@@H]2CC[C@@H](OC(=O)CN(C)C)[C@H](OC)C2)CC(=O)[C@H](C)/C=C(\C)[C@@H](O)[C@@H](OC)C(=O)[C@H](C)C[C@H](C)/C=C/C=C/C=C/1C (stereo partly drawn) [Compound 343]
< 0.316 nM,< 1000 nM,COC1C[C@@H]2CC[C@@H](C)[C@@](O)(O2)C(=O)C(=O)N2CCCCC2C(=O)O[C@H]([C@H](C)C[C@@H]2CC[C@@H](OC(=O)NCCCN3CCOCC3)[C@H](OC)C2)CC(=O)[C@H](C)/C=C(\C)[C@@H](O)[C@@H](OC)C(=O)[C@H](C)C[C@H](C)/C=C/C=C/C=C/1C (stereo partly drawn) [Compound 344]
< 0.316 nM,< 1000 nM,COCCOCCNC(=O)O[C@@H]1CC[C@@H](C[C@@H](C)[C@@H]2CC(=O)[C@H](C)/C=C(\C)[C@@H](O)[C@@H](OC)C(=O)[C@H](C)C[C@H](C)/C=C/C=C/C=C(\C)C(OC)C[C@@H]3CC[C@@H](C)[C@@](O)(O3)C(=O)C(=O)N3CCCCC3C(=O)O2)C[C@H]1OC (stereo partly drawn) [Compound 346]
< 0.316 nM,< 1000 nM,COC1C[C@@H]2CC[C@@H](C)[C@@](O)(O2)C(=O)C(=O)N2CCCCC2C(=O)O[C@H]([C@H](C)C[C@@H]2CC[C@@H](OC(=O)NCCOCCOCCOCCOCCO)[C@H](OC)C2)CC(=O)[C@H](C)/C=C(\C)[C@@H](O)[C@@H](OC)C(=O)[C@H](C)C[C@H](C)/C=C/C=C/C=C/1C (stereo partly drawn) [Compound 347]
< 0.316 nM,< 1000 nM,COC1CC2CCC(C)C(O)(O2)C(=O)C(=O)N2CCCCC2C(=O)OC(C(C)CC2CCC(OCCc3ccccc3)C(OC)C2)CC(=O)C(C)C=C(C)C(O)C(OC)C(=O)C(C)CC(C)C=CC=CC=C1C (stereo not drawn) [Compound 348]
< 0.316 nM,< 1000 nM,COC1C[C@@H]2CC[C@@H](C)[C@@](O)(O2)C(=O)C(=O)N2CCCCC2C(=O)O[C@H]([C@H](C)C[C@@H]2CC[C@@H](OCCOCCOCCOCCOCCO)[C@H](OC)C2)CC(=O)[C@H](C)/C=C(\C)[C@@H](O)[C@@H](OC)C(=O)[C@H](C)C[C@H](C)/C=C/C=C/C=C/1C (stereo partly drawn) [Compound 350]

# Reference: patent publication US11702429B2, “mTORC modulators and uses thereof” (Aeovian Pharmaceuticals, Inc., priority 2019, dated 2023)
